These results are taken from publication PMC5640712 (Frontiers in Microbiology, 2017).

Assay [1] concerns trypsin. As to conditions: commercial trypsin inhibitor; ref Aoyagi et al., 1969; Kurinov and Harrison, 1996; cited from earlier work. The source says:
Figure 6 Time dependence of trypsin inhibition efficiency (IC50) of pseudospumigin A [•, Psp A (3) + other Psp variants], nostosin A (♦, Ns A) and spumigin E (□, Sp A, from Fewer et al., [2013]). […] Time dependent inhibition is ...

Assay [2] deals with T1, Trypsin (porcine pancreas, Sigma-Aldrich) (Sus scrofa, UniProt P00761).
T1 construct: purchased Sigma-Aldrich; host or cells: porcine pancreas
T1 sequence (P00761 9-231): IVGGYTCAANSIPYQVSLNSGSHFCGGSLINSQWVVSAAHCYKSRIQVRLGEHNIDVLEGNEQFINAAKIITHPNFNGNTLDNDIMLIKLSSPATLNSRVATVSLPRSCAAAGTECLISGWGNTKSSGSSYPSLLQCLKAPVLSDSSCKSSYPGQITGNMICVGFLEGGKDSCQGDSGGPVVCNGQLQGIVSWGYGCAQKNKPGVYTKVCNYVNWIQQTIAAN
Description: Trypsin inhibition (IC50 measurement). As to conditions: at 1 h; 25°C; hydrolysis followed every 2 min for 1 h; inhibitor from 0 to 81.6 mM (so in the source); tested sample is purified Psp mixture, about 80% Psp A. The class given is biochemical. The protocol:
Trypsin (porcine pancreas, Sigma-Aldrich) activity was measured at 25°C in a reaction mixture that contained from 0 to 81.6 mM leupeptin or pseudospumigin A and the hydrolysis was followed at every 2 min for 1 h, as described earlier (Liu et al., [2015]).

For Ac-Leu-Leu-Argininal [leupeptin], in assay [1], the “time dependence of trypsin interaction” value is “interacts with trypsin without time dependency”.

For the molecule `CC[C@H](C)[C@H](NC(=O)[C@@H](CCc1ccc(O)cc1)NC(=O)[C@H](O)Cc1ccc(O)cc1)C(=O)NC(C=O)CCCNC(=N)N` (some centres unmarked) [Pseudospumigin A], the IC50 in assay [2] turned out to be 4.5 µM.

As usually defined, the IC50 is the concentration needed to halve the response being measured.
